Biological target: T1, Prolyl endopeptidase FAP (Homo sapiens, UniProt Q12884)
T1 sequence (Q12884 whole entry): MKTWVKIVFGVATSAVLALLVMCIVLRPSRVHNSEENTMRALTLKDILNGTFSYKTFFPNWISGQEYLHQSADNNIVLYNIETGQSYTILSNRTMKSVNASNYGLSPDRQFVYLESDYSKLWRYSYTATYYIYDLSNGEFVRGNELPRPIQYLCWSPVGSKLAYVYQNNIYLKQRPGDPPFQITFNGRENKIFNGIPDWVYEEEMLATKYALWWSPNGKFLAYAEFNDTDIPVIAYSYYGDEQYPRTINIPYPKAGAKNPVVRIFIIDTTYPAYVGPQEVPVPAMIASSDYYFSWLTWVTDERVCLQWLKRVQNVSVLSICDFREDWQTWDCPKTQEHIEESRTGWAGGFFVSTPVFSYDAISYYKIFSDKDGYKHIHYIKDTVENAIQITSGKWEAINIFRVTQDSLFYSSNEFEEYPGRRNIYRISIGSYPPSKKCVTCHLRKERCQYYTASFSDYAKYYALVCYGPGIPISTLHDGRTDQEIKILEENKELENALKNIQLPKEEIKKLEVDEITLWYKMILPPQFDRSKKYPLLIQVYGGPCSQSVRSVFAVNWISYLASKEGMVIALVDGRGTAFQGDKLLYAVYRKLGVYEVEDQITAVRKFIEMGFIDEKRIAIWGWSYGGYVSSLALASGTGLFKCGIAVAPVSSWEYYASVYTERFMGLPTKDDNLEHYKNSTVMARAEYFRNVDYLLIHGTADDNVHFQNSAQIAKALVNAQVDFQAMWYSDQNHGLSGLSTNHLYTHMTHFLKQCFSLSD
Assay: In Vitro hFAP Inhibition Assay
Description: FAPI-46 was used as positive control. Experiments were performed in triplicate, and the mean fluorescence values were fitted using Graph Pad Prism 9 (equation used: Y=Bottom+(Top−Bottom)/(1+((X^HillSlope)/(IC50^HillSlope)))).

Row | IC50 | SMILES
1 | 120 pM | CN(C(=O)CCC(=O)NCCNC(=O)CCC(C(=O)O)[N+]12CC[N+]34CC[N+]5(CC1)CC(=O)[O][Cu]352[O]C(=O)C4)c1ccc2nccc(C(=O)NCC(=O)N3CC(F)(F)C[C@H]3C#N)c2c1 (some centres not stated) [US20240173440, Compound [natCu]Cu-NODAGA-F2]
2 | 40 pM | N#C[C@@H]1CC(F)(F)CN1C(=O)CNC(=O)c1ccnc2ccc(NC(=O)CCC(=O)N3CCN(C(=O)CCC(C(=O)O)[N+]45CC[N+]67CC[N+]8(CC4)CC(=O)[O][Cu]685[O]C(=O)C7)CC3)cc12 (some centres not stated) [US20240173440, Compound [natCu]Cu-NODAGA-F3]
